Sc1nc2ccccc2[nH]1
solubility (mole fraction)
Settings | 283.15 K | 288.15 K | 293.15 K | 298.15 K | 303.15 K | 308.15 K | 313.15 K | 318.15 K | 323.15 K
in 2-butoxyethanol | 0.0459 | 0.0463 | 0.0469 | 0.0475 | 0.0484 | 0.0491 | 0.0498 | 0.0507 | 0.0515
in 2-ethoxyethanol | 0.0577 | 0.0583 | 0.059 | 0.0599 | 0.0607 | 0.0615 | 0.0623 | 0.0634 | 0.0646
in 2-methoxyethanol | 0.0682 | 0.0691 | 0.0703 | 0.0717 | 0.0729 | 0.0742 | 0.0758 | 0.0775 | 0.0793
in 2-propoxyethanol | 0.0497 | 0.0502 | 0.0506 | 0.0511 | 0.0519 | 0.0526 | 0.0535 | 0.0545 | 0.0555
in MIBK | 0.00859 | 0.00884 | 0.00913 | 0.00945 | 0.00983 | 0.0102 | 0.0106 | 0.011 | 0.0114
in ethyl formate | 0.00169 | 0.0018 | 0.00197 | 0.00211 | 0.00228 | 0.0025 | 0.00273 | 0.003 | 0.00323
in ethylene glycol | 0.0137 | 0.0147 | 0.0162 | 0.0175 | 0.0193 | 0.0206 | 0.022 | 0.0238 | 0.0254
in isobutanol | 0.00371 | 0.0046 | 0.00556 | 0.00638 | 0.00724 | 0.00813 | 0.0092 | 0.0103 | 0.0114
in isopropyl acetate | 0.00245 | 0.00255 | 0.00272 | 0.00283 | 0.00303 | 0.00318 | 0.00337 | 0.00364 | 0.00397
in n-butyl acetate | 0.00529 | 0.00538 | 0.00551 | 0.00564 | 0.00577 | 0.00597 | 0.00614 | 0.00637 | 0.00662
in sec-butanol | 0.00591 | 0.00729 | 0.00851 | 0.00972 | 0.011 | 0.0126 | 0.014 | 0.0159 | 0.0177
